# Assays:
# [1] = test system: leucine transporter (LeuT); test: LeuT functional assay ([3H]-Leu binding, SPA); type: biochemical, Aquifex aeolicus; settings: CMC+0.04 wt % or CMC+0.2 wt %
# Description: The new amphiphiles were then evaluated for the ability to maintain the leucine transporter (LeuT) from Aquifex aeolicus in a functional state (Quick and Javitch, Proc. Natl. Acad. Sci. USA 2007, 104, 3603-3608). The transporter was initially extracted with DDM and then diluted with amphiphile-containing solutions to generate amphiphile concentration of CMC+0.04 wt % or CMC+0.2 wt %. At both concentrations, GDN was very effective at maintaining LeuT activity, as indicated by binding of radiolabeled leucine, with preservation of >95% of initial activity after 12 days (FIG. 5c).
# LeuT functionality was measured according to the procedure reported by Chae and coworkers (Nat. Methods 2010, 7, 1003-1008).
# LeuT activity was measured according to the reported procedure (Chae et al., J. Am. Chem. Soc. 2010, 132, 16750-16752). […] Following protein storage at RT, at the indicated time points, samples were centrifuged and the protein concentration was assessed by determining absorbance at 280 nm. Concomitantly, for the corresponding time points, [^3H]-Leu binding was measured using scintillation proximity assay (SPA). […] Binding was assessed in 200 mM NaCl in the presence of tested compounds at the above-mentioned concentrations, and monitored using MicroBeta liquid scintillation counter (PerkinElmer).
# [2] = test system: R. capsulatus LHI-RC superassembly; test: R. capsulatus LHI-RC superassembly stability (A875/A680); set-up: species or system Rhodobacter capsulatus; settings: CMC+0.04 wt %, RT, 875 nm/680 nm absorbance ratio
# Description: Next a more challenging system, the photosynthetic superassembly from Rhodobacter capsulatus (Laible et al., Biochemistry 2003, 42, 1718-1730), was analyzed. This photosynthetic superassembly contains the light harvesting I (LHI) complex and the reaction center (RC) complex. The superassembly contains >30 protein molecules; integrity can be assessed based on the 875 nm/680 nm absorbance ratio (Chae et al., ChemBioChem 2008, 9, 1706-1709). The superassembly was extracted from the native membrane with 1.0 wt % DDM and purified with DDM at its CMC (0.009 wt %). […]
# The stability of R. capsulatus superassembly was assessed according to the protocol described by Chae and coworkers (J. Am. Chem. Soc. 2010, 132, 16750-16752).
# For the stability assay, DDM-solubilized material was transferred into a new microcentrifuge tube containing Ni-NTA resin (Qiagen, Inc.; Valencia, Calif.; pre-equilibrated and stored in an equal volume of buffer containing 10 mM Tris, pH 7.8, and 100 mM NaCl). After a 1 h incubation at 4° C. for binding, the resins were washed twice with 0.5 mL of binding buffer (a pH 7.8 Tris solution containing DDM at 1×CMC) and eluted three times with 0.20 mL elution buffer aliquots containing 1 M imidazole (otherwise, this buffer was identical to binding buffer; the pH of each solution was readjusted to pH=7.8). […]
# [3] = molecular target: T1, β2AR WT (Homo sapiens, UniProt P07550); test: Extraction of β2AR WT from insect cell membranes; settings: 1 or 2 wt %; western blotting
# T1 construct: made in house; host or cells: Sf9 insect cells (baculovirus); lysed cells and membranes extracted directly with amphiphile
# Description: The favorable MelB extraction performance of GDN led to the examination of this amphiphile for extraction of other IMPs. […] DDM and GDN were used to extract a CMP-Sia fusion protein bearing green fluorescent protein (GFP) at the C-terminus, after expression in Saccharomyces cerevisiae; the amount of solubilized protein was estimated by total fluorescence. GDN (2 wt %), DDM (1 wt %) and OG (1 wt %) gave ˜70%, ˜80% and ˜50% extraction yields, respectively.
# The procedure was performed according to the protocol reported by Chae and coworkers (Nat. Methods 2010, 7, 1003-1008).
# A gene encoding amino-terminally FLAG epitope tagged β2AR was expressed in Sf9 cells by baculovirus, with no ligand present during culture. Cells were infected at a density of 4×10^6 cells/mL and then cultured for 48 hours prior to harvesting by centrifugation. Cells were resuspended and lysed by osmotic shock with a low ionic strength buffer (20 mM Tris pH 7.5, 1 mM EDTA). The lysed cells were aliquoted 35 mg per aliquot, then frozen. For extraction tests, 300 μL of solubilization buffer (20 mM HEPES pH 7.5, 100 mM NaCl) containing each amphiphile was added to each aliquot, which was then homogenized by pipet followed by grinding with a glass dounce tissue homogenizer. After two-hour incubation at 4° C., samples were centrifuged at maximum speed in a tabletop microcentrifuge to pellet insoluble material. […]
# T1 sequence (P07550 whole entry): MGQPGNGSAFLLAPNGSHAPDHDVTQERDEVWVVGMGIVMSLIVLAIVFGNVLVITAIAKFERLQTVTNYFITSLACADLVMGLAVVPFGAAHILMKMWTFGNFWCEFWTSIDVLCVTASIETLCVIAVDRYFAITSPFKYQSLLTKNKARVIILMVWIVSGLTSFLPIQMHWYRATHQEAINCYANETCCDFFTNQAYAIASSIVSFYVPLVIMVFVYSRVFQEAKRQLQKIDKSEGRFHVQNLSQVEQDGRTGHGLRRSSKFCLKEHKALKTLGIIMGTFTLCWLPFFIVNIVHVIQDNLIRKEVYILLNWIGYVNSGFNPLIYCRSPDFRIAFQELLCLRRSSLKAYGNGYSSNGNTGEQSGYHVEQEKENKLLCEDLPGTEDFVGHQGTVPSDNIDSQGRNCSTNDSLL
Structure (SMILES),Maintaining LeuT activity over 12 days ([1]; RT),LHI-RC superassembly stability over 20 days relative to DDM or OG [2],"LeuT activity preserved, % of initial activity ([1]; after 12 days at RT) [%]",β2AR WT extraction compared with 1 wt % DDM [3]
"CCCCCCCCCCCCO[C@@H]1O[C@H](CO)[C@@H](O[C@H]2O[C@H](CO)[C@@H](O)[C@H](O)[C@H]2O)[C@H](O)[C@H]1O [DDM, dodecyl-β-D-maltoside, reference compound]",lost significant activity,,,
"C[C@@H]1CC[C@@]2(OC1)O[C@H]1C[C@H]3[C@@H]4CC=C5C[C@@H](OCCC(CO[C@@H]6OC(CO)[C@@H](O[C@H]7OC(CO)[C@@H](O)C(O)C7O)C(O)C6O)CO[C@@H]6OC(CO)[C@@H](O[C@H]7OC(CO)[C@@H](O)C(O)C7O)C(O)C6O)CC[C@]5(C)[C@H]4CC[C@]3(C)[C@@H]1[C@@H]2C (some centres unmarked) [GDN, glyco-diosgenin]",,substantially more stable,> 95,more effective than was 1 wt % DDM
CO[C@@H]1CC[C@@]2(C)[C@H](CC[C@@H]3[C@@H]2CC[C@]2(C)[C@@H]([C@H](C)CCCOCC(C)(CO[C@@H]4OC(CO)C(O[C@@H]5OC(CO)[C@@H](O)[C@H](O)C5O)[C@@H](O)C4O)CO[C@@H]4OC(CO)[C@@H](O[C@H]5OC(CO)[C@@H](O)[C@H](O)C5O)[C@H](O)C4O)CC[C@@H]32)C1 (some centres unmarked) [GLC-2],,substantially more stable,,
